According to patent US5714516A, “Anti-viral agents” (priority 1992, dated 1998):
≈ marks a conversion by molar mass, not a printed value. Entries after “also recorded” stand apart in the source; their conditions may differ. Where two headings read alike, the source gives them in different places.

Legend:
myristoylation = experiment: Myristoylation in the infected cell by incorporation of radiolabelled precursors; type: cell-based; conditions: 0.1 to 10×IC50
Description: (§1) Cytotoxicity was assessed by the incorporation of radiolabelled precursors to assay protein synthesis and myristoylation in the infected cell.

[1] = Cytotoxicity to C8166 cells in HIV assays; type: cell-based; conditions: human, c8166 cells, Table 2
Description: (§2) The effect of 2-hydroxymyristic acid (2-HM) on VZV or HIV when solubilized in a variety of solvents was observed using the methods approved for the Medical Research Council AIDS Directed Programme as described in H. C. Holmes et al., Antiviral Chem. & Chemother. (1991), 2(5), 287-293, using concentrations of 2 HM from 0.08to 1000 μM. Additionally, back titration assays of HIV were carried out by adding supernatants from treated infected cells to uninfected C8166 cells at increasing dilutions. Assays were scored by recording the presence or absence of syncytium formation.
(§3) The HIV assays were performed at three of the MRC approved laboratories (Mill Hill, Cambridge and St. Bartholomew's Hospital).
(§4) Stocks of 2-HM were prepared from crystalline solid by dissolving in ethanol or in dimethyl sulphoxide (DMSO) to a concentration of 20 mM to 100 mM, and were stored at -20° C. prior to addition to culture media. Concentrations of 2-HM greater than 80 to 100 μM are imprecise, since 2-HM crystallises from aqueous solutions at such levels.

C8166 cells = experiment: Cytotoxicity to C8166 cells in HIV assays; type: cell-based; conditions: St. Bartholomew's and Mill Hill; only above levels at which 2-HM would crystallise from aqueous solution
Description: as §2, §3, §4

[2] = system: VZV viral antigen synthesis; experiment: Synthesis of VZV viral antigen assayed by immunoblotting in infected MRC5 cells; type: cell-based, Varicella zoster virus (VZV)
Description: In order to characterise the nature of the antiviral effect, the effect of 2-hydroxymyristic acid on the synthesis of viral antigen was assayed by immunoblotting.

[3] = Crystallisation from aqueous solution / medium; type: physicochemical
HIV [4] = experiment: HIV antigen assay; type: cell-based; conditions: for IC50: Human immunodeficiency virus 1, Table 2
Description: as §2, §3, §4

MRC5 monolayer = experiment: Total protein synthesis by incorporation of 35S methionine in infected MRC5 cells (cytotoxicity); type: cell-based
Description: as §1

in vitro = experiment: in vitro; parameters: Toxicity in Mewo Cells: key to the marks not given beside the values; conditions: human, mewo cells
Description: (§5) The assay system used was the Mewo cell plaque reduction assay of VZV, C. Grose and P. A. Brunell, Infection & Immunity, 19, 199-203 (1978). […] Compounds were tested at levels from 2 to 200 μM.
(§6) The VZV plaque assay of Example 1 was repeated using a variety of myristic acid analogues. Briefly, sub-confluent Mewo monolayers (Grose and Brunell, 1978, supra) in 24 well plates were infected with approximately 40 P.F.U. (Plaque Forming Units) of cell-free varicella zoster virus (VZV) strain H-551. After an adsorption period of 2 hours the cells were overlaid with 750 μl of MEM (Minimum Essential Medium (Eagle)) supplemented with 2% fetal calf serum and 1% non-essential amino acids. The anti-viral compounds to be tested were solubilized in ethanol, added to final concentrations of 0, 2, 20 or 200 μM and the wells then overlaid with a further 750 μl of MEM supplemented with 2% fetal calf serum, 1% non-essential amino acids and 0.3% agarose. Mock infected wells were also included as controls to test for cytotoxicity. All plates were incubated at 32° C. with 5% CO2. Eight days post infection the monolayers were fixed in 4% formaldehyde and stained with crystal violet.
(§7) Preparation and assay of VZV was carried out as described previously in Examples 1 and 3.

Mewo cells = experiment: in vitro; parameters: Toxicity in Mewo Cells: key to the marks not given beside the values
Description: as §5, §6, §7

[5] = system: Varicella zoster virus (VZV); experiment: VZV plaque reduction assay in Mewo cells; type: cell-based, varicella zoster virus (VZV) strain H-551; conditions: for Inhibition of VZV (in words): Example 1, 2 to 200 μM
Description: as §5, §6, §2, §7
Stocks of 2-HM were prepared from crystalline solid by dissolving in ethanol or in dimethyl sulphoxide (DMSO) to a concentration of 20 mM to 100 mM, and were stored at -20° C. prior to addition to culture media.

HIV [6] = experiment: HIV virus titration (back titration, syncytium formation in C8166 cells); type: cell-based; conditions: Human immunodeficiency virus 1, C8166; Table 2; Ethanol; Mill Hill
Description: as §2, §3, §4

HIV [7] = conditions: Saermark et al.; Bryant et al.; cited from earlier work
[8] = Human alphaherpesvirus 3, MeWo, 192 h, Table 1, Example 3, solubilized in ethanol, 0, 2, 20 or 200 μM, eight days post infection, Mewo cells, read-out: IC50 Against VZV
[9] = Table 1, Example 3, solubilized in ethanol, 0, 2, 20 or 200 μM, eight days post infection, Mewo cells, read-out: IC50 Against VZV
[10] = Table 1, Example 3, solubilized in ethanol, 0, 2, 20 or 200 μM, eight days post infection, Mewo cells
[11] = Human alphaherpesvirus 3, MeWo, 192 h, read-out: IC50 Against VZV (μM)

## CCCCCCCCCCCCC(O)C(=O)O (racemic) [2-hydroxymyristic acid]
myristoylation
  Inhibition of myristoylation: non-specific inhibition of myristoylation
[1]; DMSO, St. Bartholomew's, read-out: TC50, HIV antigen assay
  CC50: > 400 µM
[1]; Ethanol, Mill Hill, antigen assay, read-out: TC50, HIV antigen assay
  CC50: 192 µM
[1]; Ethanol, Mill Hill, virus titration, read-out: TC50, HIV virus titration
  CC50: 192 µM
[1]; Ethanol, St. Bartholomew's, read-out: TC50, HIV antigen assay
  CC50: 168 µM
C8166 cells
  Toxicity to C8166 cells (in words): toxicity of 2-HM to C8166 cells was detected
[2]; MRC5 monolayers, suggested by results
  Effect on syncytium formation: inhibit syncytium formation
[2]; inoculum one infected to four uninfected cells, three days post-infection, 80 μM (10×IC50)
  Reduction in viral antigen synthesis: no reduction in antigen synthesis was apparent
[2]; reduced initial inoculum, harvest time increased, inversely proportional to inoculum
  Inhibition of viral antigen synthesis at reduced inoculum: inhibition was apparent
[3]; aqueous solution, aqueous solutions, read-out: Concentration above which 2-HM crystallises from aqueous solutions
  solubility: 80 to 100 µM (≈ 19.5 to 24.4 µg/mL)
[3]; at the highest concentration, VZV plaque assay
  Crystalline deposits: crystalline deposits were observed
HIV [4]; DMSO, St. Bartholomew's
  IC50: 220 µM
HIV [4]; Ethanol, Mill Hill
  IC50: 2 µM
HIV [4]; Ethanol, St. Bartholomew's
  IC50: 31.4 µM
HIV [4]; ethanol as the solvent, St. Bartholomew's Hospital
  Anti-viral effect against HIV on re-test (in words): a clear anti-viral effect was apparent
HIV [4]; solubilised in DMSO, St. Bartholomew's Hospital
  Anti-viral effect against HIV (in words): lack of any significant anti-viral effect
HIV [4]; solubilised in ethanol, Mill Hill
  Inhibition of HIV replication (in words): inhibits the replication
MRC5 monolayer; 1:4 inoculum, 0.1 to 10×IC50
  Total protein synthesis (35S methionine incorporation): unaffected at any concentration tested
MRC5 monolayer; up to ten times greater than the IC50
  Cellular toxicity (in words): not toxic to cells; also recorded: without producing significant cellular toxicity
In vitro
  CC50: > 200 µM
Mewo cells
  Cytotoxicity in the assay (in words): failed to be cytotoxic
Mewo cells; human, mewo cells
  CC50: > 200 µM
[5]
  Inhibition of VZV (in words): showed inhibition at 20 and 200 μM
[5]; Human alphaherpesvirus 3, MeWo, 8 μM lower end to 33 μM upper end, read-out: Range of IC50 against VZV over Examples
  IC50: 8 to 33 µM
[5]; [8]
  IC50: 21.5 µM
[5]; Human alphaherpesvirus 3, MeWo, Table 2, DMSO, St. Bartholomew's, read-out: IC50, VZV plaque reduction
  IC50: > 200 µM
[5]; Human alphaherpesvirus 3, MeWo, Table 2, Ethanol, St. Bartholomew's, read-out: IC50, VZV plaque reduction
  IC50: 33.1 µM
[5]; Human alphaherpesvirus 3, MeWo, read-out: 50% inhibitory concentration (IC50), VZV plaque reduction
  IC50: 8 µM
[5]; solubilised in DMSO
  Anti-viral effect against VZV (in words): no significant anti-viral effect
[5]; solubilised in ethanol, St. Bartholomew's Hospital
  Inhibition of VZV replication (in words): inhibits the replication
HIV [6]
  IC50: 3.9 µM

## CCCCCCCCCCCCC(O)C(=O)O (single isomer, unassigned) [2-hydroxytetradecanoic acid (+)]
Mewo cells
  Cytotoxicity in the assay (in words): failed to be cytotoxic
[5]; [9]
  IC50: 48.7 µM

## CCCCCCCCCCCCC(O)C(=O)O (single isomer, unassigned) [2-hydroxytetradecanoic acid (-)]
Mewo cells
  Cytotoxicity in the assay (in words): failed to be cytotoxic
[5]; [9]
  IC50: 11.5 µM

## CCCCCCCCCC(OCC)C(=O)O (stereo not drawn) [2-(ethyloxy)undecanoic acid, reference compound]
[5]; [8]
  IC50: 14.4 µM

## CCCCCCCCCCCCC(N=[N+]=[N-])C(=O)O (stereo not drawn) [2-azidotetradecanoic acid, reference compound]
[5]; [10]
  IC50 Against VZV (μM): unobtainable

## CCCCCCCCCCCCCCC(Br)C(=O)O (stereo not drawn) [2-bromopalmitic acid]
Mewo cells; Example 3, at 200 μM
  Toxic at 200 μM (in words): toxic at 200 μM
Mewo cells; Table 1, Example 3, 0, 2, 20 or 200 μM, eight days post infection
  Toxicity in Mewo Cells: +++
[5]; [11]
  IC50: 0.89 µM

## CCCCCCCCCCCCC(Br)C(=O)O (stereo not drawn) [2-bromotetradecanoic acid, reference compound]
[5]; [8]
  IC50: 14.8 µM

## CCCCCCCCCCCCCCC(O)C(=O)O (stereo not drawn) [2-hydroxypalmitic acid]
[5]; [8]
  IC50: 14.2 µM

## CCCCNCCCCCCCCC(=O)O [9-(butylamino)nonanoic acid, reference compound]
[5]; [8]
  IC50: 164 µM

## CCNCCCCCCCCCCC(=O)O [11-(ethylamino)undecanoic acid, reference compound]
[5]; [10]
  IC50 Against VZV (μM): unobtainable

## CCSCCCCCCCCCCC(=O)O [11-(ethylthio)undecanoic acid, reference compound]
[5]; [10]
  IC50 Against VZV (μM): unobtainable

## COCCCCCCCCCCCC(=O)O [12-(methyloxy)dodecanoic acid, reference compound]
[5]; [11]
  IC50: 17.3 µM

## COCCCCCCCCCCCC(=O)O [13-oxamyristic acid]
HIV [7]
  Inhibition of HIV release from infected cells (in words): effective

## CCCCCCCCCCCCCC(=O)NCC(OCC)OCC [N-myristoylglycinaldiethylacetal (GoA), N-myristoylglycinaldiethylacetal, reference compound]
[5]
  Inhibition of VZV (in words): did not cause 50% inhibition of virus at any concentration tested
[5]; [10]
  IC50 Against VZV (μM): unobtainable

## O=C(O)C1CO1 (stereo not drawn) [glycidic acid, reference compound]
[5]; [8]
  IC50: 4.5 µM

## CCCCCCCCCCCCCC(=O)NC [myristoylmethylamide, reference compound]
[5]; [8]
  IC50: 56.6 µM
